Experimental data as given in ChEMBL document CHEMBL1139200, “Structure-activity relationships, and drug metabolism and pharmacokinetic properties for indazole piperazine and indazole piperidine inhibitors of ROCK-II” (Bioorg Med Chem Lett, 2007).
Blank lines part the entries; values can stand above or below the molecule they belong to.

Assays:
[1] = target: Cytochrome P450 3A4 (Homo sapiens, UniProt P08684)
[2] = target: Rho-associated protein kinase 2 (Homo sapiens, UniProt O75116); experiment: Inhibition of ROCK2
[3] = Clearance in rat at 1 mg/kg, iv; format: ADME, organism-based; set-up: dose 1 mg/kg, route intravenous; conditions: in vivo
[4] = AUC (0 to infinity) in rat at 2 mg/kg, po; format: ADME, organism-based; set-up: time infinity, dose 2 mg/kg, route oral; conditions: plasma
[5] = Oral bioavailability in rat at 2 mg/kg; format: ADME, organism-based; conditions: in vivo
[6] = AUC (0 to infinity) in rat at 1 mg/kg, iv; format: ADME, organism-based; set-up: time infinity, dose 1 mg/kg, route intravenous; conditions: plasma
[7] = Cmax in rat at 2 mg/kg, po; format: ADME, organism-based; set-up: dose 2 mg/kg, route oral; conditions: in vivo
[8] = organism: Homo sapiens; experiment: Selectivity for ROCK2 over MRCK
[9] = Metabolic stability in human liver microsomes
[10] = Tmax in rat at 2 mg/kg, po; format: ADME, organism-based; set-up: dose 2 mg/kg, route oral; conditions: in vivo
[11] = Volume of distribution in rat at 1 mg/kg, iv; format: ADME, organism-based; set-up: dose 1 mg/kg, route intravenous; conditions: in vivo
[12] = organism: Homo sapiens; experiment: Selectivity for ROCK2 over PKA
[13] = Half life in rat at 1 mg/kg, iv; format: ADME, organism-based; set-up: dose 1 mg/kg, route intravenous; conditions: in vivo
[14] = system: N2a; experiment: Inhibition of LPA-induced neurite retraction in mouse N2A cells; format: functional, cell-based
[15] = Inhibition of PKA; set-up: species or system Homo sapiens
[16] = Inhibition of MRCK; set-up: species or system Homo sapiens

Chain of Cytochrome P450 3A4 (P08684 whole entry): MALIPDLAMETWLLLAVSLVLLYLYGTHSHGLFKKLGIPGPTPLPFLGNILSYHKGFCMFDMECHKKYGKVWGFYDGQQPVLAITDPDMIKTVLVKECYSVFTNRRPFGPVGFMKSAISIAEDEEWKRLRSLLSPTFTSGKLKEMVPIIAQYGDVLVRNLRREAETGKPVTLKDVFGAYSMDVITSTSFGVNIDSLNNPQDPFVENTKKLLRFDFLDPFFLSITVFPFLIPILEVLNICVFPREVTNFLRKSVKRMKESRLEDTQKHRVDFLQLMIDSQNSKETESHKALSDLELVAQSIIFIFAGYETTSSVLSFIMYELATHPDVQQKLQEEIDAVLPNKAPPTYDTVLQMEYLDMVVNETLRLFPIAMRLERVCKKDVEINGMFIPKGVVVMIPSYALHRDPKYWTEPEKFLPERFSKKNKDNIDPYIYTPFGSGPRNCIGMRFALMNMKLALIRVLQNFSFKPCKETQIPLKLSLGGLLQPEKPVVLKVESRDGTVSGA
Chain of Rho-associated protein kinase 2 (O75116 whole entry): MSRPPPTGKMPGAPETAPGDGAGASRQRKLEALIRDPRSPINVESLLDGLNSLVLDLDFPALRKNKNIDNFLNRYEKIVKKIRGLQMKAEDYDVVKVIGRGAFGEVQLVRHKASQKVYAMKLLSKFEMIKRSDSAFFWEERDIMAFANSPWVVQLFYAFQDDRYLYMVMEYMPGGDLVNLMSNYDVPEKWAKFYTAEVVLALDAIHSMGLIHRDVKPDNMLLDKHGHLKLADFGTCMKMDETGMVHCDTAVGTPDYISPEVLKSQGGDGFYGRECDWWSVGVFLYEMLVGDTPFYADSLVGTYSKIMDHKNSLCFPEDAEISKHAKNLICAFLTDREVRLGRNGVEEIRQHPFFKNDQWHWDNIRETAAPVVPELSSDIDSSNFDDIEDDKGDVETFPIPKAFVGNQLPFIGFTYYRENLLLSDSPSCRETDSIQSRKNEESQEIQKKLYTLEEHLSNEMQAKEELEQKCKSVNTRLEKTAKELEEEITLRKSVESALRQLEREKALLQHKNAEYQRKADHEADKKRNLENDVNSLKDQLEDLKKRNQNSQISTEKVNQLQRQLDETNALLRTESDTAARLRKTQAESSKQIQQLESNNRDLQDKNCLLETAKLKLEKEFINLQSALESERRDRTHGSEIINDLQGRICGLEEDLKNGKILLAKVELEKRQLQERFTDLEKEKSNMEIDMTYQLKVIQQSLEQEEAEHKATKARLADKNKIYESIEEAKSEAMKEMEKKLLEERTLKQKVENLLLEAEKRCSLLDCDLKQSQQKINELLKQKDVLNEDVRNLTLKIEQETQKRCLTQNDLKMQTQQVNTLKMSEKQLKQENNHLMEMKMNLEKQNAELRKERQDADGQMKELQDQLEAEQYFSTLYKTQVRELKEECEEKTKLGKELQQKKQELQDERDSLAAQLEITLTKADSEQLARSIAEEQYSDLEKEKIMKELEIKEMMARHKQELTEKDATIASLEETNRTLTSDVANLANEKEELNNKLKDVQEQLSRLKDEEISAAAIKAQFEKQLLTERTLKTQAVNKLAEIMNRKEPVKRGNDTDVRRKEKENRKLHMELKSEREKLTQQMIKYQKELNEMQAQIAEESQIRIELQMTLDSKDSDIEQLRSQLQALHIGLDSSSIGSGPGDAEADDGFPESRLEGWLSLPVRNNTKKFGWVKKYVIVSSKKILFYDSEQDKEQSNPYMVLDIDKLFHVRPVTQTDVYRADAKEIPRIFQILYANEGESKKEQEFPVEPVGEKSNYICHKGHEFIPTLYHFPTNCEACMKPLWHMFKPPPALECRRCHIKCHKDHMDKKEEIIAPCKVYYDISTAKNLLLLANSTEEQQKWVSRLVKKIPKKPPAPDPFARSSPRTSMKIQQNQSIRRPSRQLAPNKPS

Compound: NC(C(=O)N1CCC(Nc2ccc3[nH]ncc3c2)CC1)c1ccc(Br)cc1 (configuration not stated)
clearance [3]: 41.4 mL/min/kg
AUC(0-inf) [4]: 0.15 µM·h
bioavailability [5]: 8%
AUC(0-inf) [6]: 0.95 µM·h
Cmax [7]: 100 nM
IC50 [1]: 0.49 µM
Ratio IC50 [8]: 554
half-life ([9]; microsomes): 10.8 min
Tmax [10]: 42 min
Vd [11]: 1.7 L/kg
Ratio IC50 [12]: 72
half-life [13]: 36 min
IC50 [14]: 5.7 µM
IC50 [15]: 0.94 µM
IC50 [16]: 7.2 µM
IC50 [2]: 0.013 µM

Compound: O=C(C(O)c1ccc(Br)cc1)N1CCC(Nc2ccc3[nH]ncc3c2)CC1 (configuration not stated)
clearance [3]: 30.3 mL/min/kg
AUC(0-inf) [4]: 0.71 µM·h
bioavailability [5]: 26%
AUC(0-inf) [6]: 1.35 µM·h
Cmax [7]: 200 nM
IC50 [1]: 3.5 µM
Ratio IC50 [8]: > 250
half-life ([9]; liver microsomes): 36.3 min
Tmax [10]: 24 min
Vd [11]: 1.9 L/kg
Ratio IC50 [12]: 53
half-life [13]: 66 min
IC50 [14]: 3.5 µM
IC50 [15]: 4.2 µM
IC50 [16]: > 20 µM
IC50 [2]: 0.08 µM

Compound: O=C(C(O)c1ccc(Cl)cc1)N1CCN(c2ccc3[nH]ncc3c2)CC1 (configuration not stated)
IC50 [1]: 3 µM
IC50 [2]: 0.19 µM

Compound: N[C@H](C(=O)N1CCC(Nc2ccc3[nH]ncc3c2)CC1)c1ccccc1
IC50 [2]: 0.83 µM

Compound: O=C([C@H](O)c1ccccc1Cl)N1CCN(c2ccc3[nH]ncc3c2)CC1
IC50 [1]: 8 µM
IC50 [2]: 1.2 µM

Compound: O=C([C@H](O)c1ccccc1)N1CCC(Nc2ccc3[nH]ncc3c2)CC1
IC50 [1]: 1 µM
IC50 [2]: 0.77 µM

Compound: N[C@@H](Cc1ccccc1)C(=O)N1CCC(Nc2ccc3[nH]ncc3c2)CC1
IC50 [1]: 1 µM
IC50 [2]: 0.47 µM

Compound: O=C([C@H](O)c1cccc(Cl)c1)N1CCN(c2ccc3[nH]ncc3c2)CC1
IC50 [1]: 3.5 µM
IC50 [2]: 1 µM

Compound: O=C([C@@H](O)c1ccccc1Cl)N1CCC(Nc2ccc3[nH]ncc3c2)CC1
IC50 [1]: 4 µM
IC50 [2]: 1.7 µM

Compound: O=C([C@@H](O)c1cccc(Cl)c1)N1CCC(Nc2ccc3[nH]ncc3c2)CC1
IC50 [1]: 2 µM
IC50 [2]: 0.35 µM

Compound: O=C([C@@H]1Cc2ccccc2CN1)N1CCN(c2ccc3[nH]ncc3c2)CC1
IC50 [1]: 10 µM
IC50 [2]: 5.3 µM

Compound: C[C@H](O)C(=O)N1CCC(Nc2ccc3[nH]ncc3c2)CC1
IC50 [1]: 1 µM
IC50 [2]: 10 µM

Compound: O=C(C(O)c1ccc(Br)cc1)N1CCN(c2ccc3[nH]ncc3c2)CC1 (configuration not stated)
clearance [3]: 109 mL/min/kg
AUC(0-inf) [4]: 0.21 µM·h
bioavailability [5]: 28%
AUC(0-inf) [6]: 0.38 µM·h
Cmax [7]: 100 nM
Tmax [10]: 24 min
Vd [11]: 3.7 L/kg
half-life [13]: 42 min
IC50 [14]: 2.4 µM
IC50 [15]: 2.7 µM
IC50 [16]: > 20 µM
IC50 [2]: 0.1 µM

Compound: NC(C(=O)N1CCC(Nc2ccc3[nH]ncc3c2)CC1)c1cccc(Cl)c1 (configuration not stated)
IC50 [1]: 0.17 µM
IC50 [2]: 0.15 µM

Now from value to molecule:

IC50 [1]: 0.25 µM
IC50 [2]: 0.76 µM
Compound: NC(C(=O)N1CCN(c2ccc3[nH]ncc3c2)CC1)c1cccc(Cl)c1 (configuration not stated)

IC50 [1]: 10 µM
IC50 [2]: > 10 µM
Compound: C[C@@H](N)C(=O)N1CCN(c2ccc3[nH]ncc3c2)CC1

IC50 [1]: 7 µM
IC50 [2]: 0.38 µM
Compound: N[C@H](Cc1ccccc1)C(=O)N1CCN(c2ccc3[nH]ncc3c2)CC1

IC50 [1]: 0.47 µM
IC50 [2]: 1.3 µM
Compound: N[C@@H](C(=O)N1CCN(c2ccc3[nH]ncc3c2)CC1)c1ccccc1

IC50 [1]: 10 µM
IC50 [2]: 3.9 µM
Compound: CC(C)[C@@H](O)C(=O)N1CCN(c2ccc3[nH]ncc3c2)CC1

clearance [3]: 75.5 mL/min/kg
AUC(0-inf) [4]: 0.09 µM·h
bioavailability [5]: 8%
AUC(0-inf) [6]: 0.54 µM·h
Cmax [7]: 400 nM
IC50 [1]: 0.41 µM
Ratio IC50 [8]: > 222
half-life ([9]; liver microsomes): 9.8 min
Tmax [10]: 24 min
Vd [11]: 2.7 L/kg
Ratio IC50 [12]: 5
half-life [13]: 36 min
IC50 [14]: > 15 µM
IC50 [15]: 0.45 µM
IC50 [16]: > 20 µM
IC50 [2]: 0.09 µM
Compound: NC(C(=O)N1CCN(c2ccc3[nH]ncc3c2)CC1)c1ccc(Br)cc1 (configuration not stated)

IC50 [1]: > 10 µM
IC50 [2]: 6 µM
Compound: C[C@H](N)C(=O)N1CCC(Nc2ccc3[nH]ncc3c2)CC1

IC50 [1]: 10 µM
IC50 [2]: 0.8 µM
Compound: O=C([C@H](O)c1ccccc1)N1CCN(c2ccc3[nH]ncc3c2)CC1

IC50 [1]: 0.53 µM
IC50 [2]: 0.19 µM
Compound: NC(C(=O)N1CCN(c2ccc3[nH]ncc3c2)CC1)c1ccc(Cl)cc1 (configuration not stated)
